From article PMC10533049, “Anti-Inflammatory Halogenated Monoterpenes from the Red Alga Portieria hornemannii” (Marine Drugs, 2023)
Read-outs that look alike come from different tables or passages of the source.

Assays:
TNF-α = TNF-α expression in LPS-stimulated dendritic cells (ELISA); type: cell-based; settings: for IC50: Dendritic cell; for Anti-inflammatory activity (result in words): LPS-stimulated dendritic cells, pro-inflammatory cytokine / TNF-α production
Description: (§1) In this study, the viability of D.C. cells was evaluated at a concentration of 100 μg/mL using a cell-counting-kit assay (CCK-8) obtained from Dojindo Molecular Technologies, Inc. (Kumamoto, Japan), which measured absorbance at a wavelength of 450 nm, following the methodology outlined by Chung et al.. The expression of the pro-inflammatory cytokine, TNF-α, in the culture supernatant was screened using the dendritic cells ELISA kit, as described in a previous study.

[1] = Viability of dendritic cells (CCK-8 assay); type: cell-based; settings: for viability at 100 μg/mL: DCs, CCK-8, mean ± S.D., triplicate, read-out: Cell Viability (%) (DCs)
Description: as §1

[2] = test system: cell lines derived from the brain, kidney, and colon; set-up: method as in PMID 1501227, PMID 9443608; settings: cited from earlier work
[3] = read-out: Anti-Inflammatory Activity (IC50) TNF-α Expression (LPS/DCs)

Structure (SMILES)	IC50 (TNF-α; [3])	Anti-inflammatory activity (result in words) (TNF-α)	viability at 100 μg/mL [1]	IC50 (TNF-α; LPS-stimulated DCs, unit inferred, read-out: IC50, reduction of TNF-α production in LPS-stimulated dendritic cells)	IC50 ([1]; dendritic cells (DCs), positive control, read-out: Cytotoxicity against DCs, IC50)	Cytotoxicity in NCI human tumor cell line screen (result in words) [2]
C=C[C@@](C)(Cl)[C@@H](Br)/C=C/[C@](C)(Cl)C(Cl)Cl [Compound 1, (3R,4S,5E,7S)-4-Bromo-3,7,8,8-tetrachloro-3,7-dimethyl-octa-1,5-diene]	2.5 ± 0.4 µM	significantly reduce the TNF-α	47 ± 2.1%			
O=c1c(O)c(-c2ccc(O)c(O)c2)oc2cc(O)cc(O)c12 [quercetin, reference compound]				23.1 ± 5.2 µM	78.8 ± 7.3 µM	
C=C(Cl)[C@](Cl)(CBr)CC[C@@H](Br)C(C)(C)Cl [halomon]						significant differential cytotoxicity
C=C[C@](C)(Cl)[C@H](Cl)/C=C/C(=C/Cl)C(Br)Br [Compound 3, (3S,4R,5E,7Z)-3,4,8-trichloro-7-dibromomethyl-3-methyl-octa-1,5,7-triene]	> 100 µM	did not show any activity	80.2 ± 8.3%			
C=C[C@@](C)(Cl)[C@@H](Cl)/C=C/C(C)(Cl)C(Cl)Cl (relative stereo) [Compound 2, (3R*,4S*,5E)-3,4,7,8,8-Pentachloro-3,7-dimethyl-octa-1,5-diene]	> 100 µM		88.8 ± 8.1%			
C=C[C@@](C)(Cl)[C@@H](Cl)/C=C/C(=C/Cl)C(Cl)Cl [Compound 4]	6.2 ± 1.1 µM	significantly reduce the TNF-α	51.1 ± 2.2%			
C=C[C@@](C)(Cl)[C@H](Cl)/C=C/C(=C/Cl)C(Cl)Cl [Compound 5]	10.6 ± 1.3 µM	significantly reduce the TNF-α	49.1 ± 2.7%			
